The source of these data is PMC4900628, “Critical Evaluation of P2X7 Receptor Antagonists in Selected Seizure Models” (PLoS ONE, 2016).

For one assay, the target named is T1, human P2X7R (Homo sapiens, UniProt Q99572).
T1 construct: expressed in transfected cells
T1 sequence (Q99572 1-595): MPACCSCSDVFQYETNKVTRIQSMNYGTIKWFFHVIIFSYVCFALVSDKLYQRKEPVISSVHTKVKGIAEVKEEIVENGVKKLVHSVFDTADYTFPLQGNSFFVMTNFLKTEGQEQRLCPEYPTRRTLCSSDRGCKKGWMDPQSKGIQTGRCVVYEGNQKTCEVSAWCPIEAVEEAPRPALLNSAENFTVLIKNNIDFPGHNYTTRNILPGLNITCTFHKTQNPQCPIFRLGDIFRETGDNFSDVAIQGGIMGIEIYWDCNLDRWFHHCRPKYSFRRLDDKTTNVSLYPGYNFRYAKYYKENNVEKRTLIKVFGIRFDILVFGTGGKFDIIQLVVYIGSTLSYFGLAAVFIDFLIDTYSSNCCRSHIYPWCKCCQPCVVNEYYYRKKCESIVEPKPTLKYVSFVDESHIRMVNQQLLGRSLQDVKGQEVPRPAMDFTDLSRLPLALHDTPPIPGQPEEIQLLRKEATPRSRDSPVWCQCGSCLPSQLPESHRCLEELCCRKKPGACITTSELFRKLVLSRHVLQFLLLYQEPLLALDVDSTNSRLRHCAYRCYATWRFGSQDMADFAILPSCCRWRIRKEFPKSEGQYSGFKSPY
Description: fluorometric Ca2+ assay (ATP-induced [Ca2+]i response) in HEKhP2X7 cells. The format is cell-based. Particulars: fluo-4, 1 mM ATP, read-out: Potency IC50 ± SEM, Human P2X7R. The protocol: Cells were grown in a humidified incubator at 37°C in an atmosphere supplemented with 5% CO2. […] HEK293mP2X7 were cultured in DMEM under similar conditions as described above, but containing 100 μg/ml zeocin (Invitrogen). […] Expression of the transgene was induced by supplementing the medium with 1 μg/ml tetracycline (Sigma-Aldrich, Taufkirchen, Germany) 24 h prior to the experiments. All fluorometric Ca^2+ assays in cell suspensions were performed in 384-microwell plates (Corning, No. 3655, Lowell, MA, USA) with a fluorescence-imaging microplate reader (POLARstar Omega, BMG Labtech, Offenburg, Germany) (for details, see [61, 68]). […] Microwell plates were repetitively scanned every 16 s in the fast scanning mode of the device. […] Data were normalized to the baseline values before ATP application (F/F0). […] ATP-solution was freshly prepared in Mg^2+-free HBS solution and adjusted to pH 7.4. Aliquots of stock solutions were stored at -20°C and freshly diluted with the appropriate HBS solution. […] Results are expressed as mean ± SEM. […] In the PTZ-T, the number of animals in the group with clonic seizures and the latency time were analysed using Fisher's exact probability test and the Mann-Whitney rank sum test, respectively. For multiple comparisons of the latency time a one-way ANOVA with the Holm-Sidak post hoc test was used. The influence of AFC on the plasma and brain concentrations of the antiepileptic drugs was statistical compared using the same procedure. In the PTZ-kindling model, the mean seizure stage within a group was calculated in relation to the number of PTZ-injections. Statistical comparison between vehicle- and compound-treated groups in this model was performed with two-way repeated measures ANOVA, followed by the Holm-Sidak post hoc test. […] In fully kindled rats, the calculated mean seizure stage within a group after vehicle- and compound-treatment were compared using a paired t-test. P < 0.05 was the accepted minimum level of significance.

The subject of assay [1] is PTZ-induced seizures in fully PTZ-kindled rats. Description: PTZ-induced seizures in fully kindled rats. The format is in vivo. The settings on record: for effect on mean seizure stage in fully kindled rats: TIIAS 30 mg/kg i.p., BBG 50 mg/kg i.p., AFC 25 mg/kg i.p., JNJ 30 mg/kg s.c., acute. An excerpt:
Results were expressed as mean seizure stages of a tested group in which the seizure behaviour after vehicle treatment (vehicle seizure stage) and after compound treatment (compound seizure stage), examined 3-4 days later, was matched. For comparison, the effectiveness of two antiepileptic drugs (carbamazepine and valproate) was also investigated. […] Chemicals, Toronto, Canada) was slowly added. The pH was adjusted with 1N NaOH (similar amount of NaOH as HCl), all with continuous stirring. […] The drug solutions or suspensions were prepared immediately before use; all doses refer to the salts. Animals in the control group received equivalent volumes of the vehicle (in mice always 10 ml/kg, in rats 1 ml/kg [JNJ], 3 ml/kg [AFC] or 4 ml/kg [BBG, TIIAS], depending on the solubility of the different compounds). Doses and peak time effects were selected on the basis of effective doses from corresponding in vivo studies in the literature: BBG (e.g.), tanshinone IIA (e.g.) and from manufacturer's experimental data: AFC, JNJ (see, [80]). Data were analysed using SigmaPlot (vers. 12.0, Systat Software, Erkrath, Germany) and SPSS (IBM SPSS Statistics 20, […], Germany), respectively. Results are expressed as mean ± SEM. […] In the MES-T, the current intensity inducing tonic hindlimb extensions in 50% of the mice (CC50 values with confidence limits for 95% probability) and the statistical significance was calculated using Probit analysis (SPSS). […] In the PTZ-T, the number of animals in the group with clonic seizures and the latency time were analysed using Fisher's exact probability test and the Mann-Whitney rank sum test, respectively. For multiple comparisons of the latency time a one-way ANOVA with the Holm-Sidak post hoc test was used. The influence of AFC on the plasma and brain concentrations of the antiepileptic drugs was statistical compared using the same procedure. In the PTZ-kindling model, the mean seizure stage within a group was calculated in relation to the number of PTZ-injections. Statistical comparison between vehicle- and compound-treated groups in this model was performed with two-way repeated measures ANOVA, followed by the Holm-Sidak post hoc test. The mean number of PTZ-injections needed to produce the first generalized seizure (≥ stage 3 convulsions) in the vehicle- versus compound-treated groups was statistically compared using a Mann-Whitney rank sum test. In fully kindled rats, the calculated mean seizure stage within a group after vehicle- and compound-treatment were compared using a paired t-test. P < 0.05 was the accepted minimum level of significance.

“And” between values parts separate entries of the source, which are not always exact repeats. Equal values may be shown once.

What is called IC50 is the concentration that gives 50% inhibition. For the compound `CCOc1ccc(Nc2ccc(/C(=C3C=C/C(=[N+](/CC)Cc4cccc(S(=O)(=O)[O-])c4)C=C/3C)c3ccc(N(CC)Cc4cccc(S(=O)(=O)O)c4)cc3C)cc2)cc1` [Brilliant Blue G], the IC50 at human P2X7R is 980 ± 70 nM. In addition, in assay [1], the “effect on mean seizure stage in fully kindled rats” value (“effect on mean seizure stage” for short) was “tendency to reduce the mean seizure stage”.
Regarding `O=C(NCC1(N2CCN(c3ccccc3)CC2)CCOCC1)c1cccnc1Sc1ccccc1` [JNJ-47965567, N-[[4-(4-phenyl-piperazin-1-yl)tetrahydro-2H-pyran-4-yl]-methyl]-2-(phenyl-thio) nicotinamide], the IC50 on human P2X7R is 5 ± 0.5 nM. Moreover, in assay [1], the “effect on mean seizure stage” value is listed as “tendency to reduce the mean seizure stage”. Also, in assay [1] (fully kindled rats, 15 mg/kg s.c., pre-drug (vehicle) value 4.4, significant), the “mean seizure stage, post-drug” value is given as 2.9.
Turning to `Cc1c(S(=O)(=O)[O-])oc2c1C(=O)C(=O)c1c-2ccc2c1CCCC2(C)C.[Na+]` [Tanshinone TIIAS, tanshinone IIS sulfonic sodium], the half-inhibitory concentration (IC50) on human P2X7R is 300 nM and 310 nM. The “effect on mean seizure stage” value in assay [1] is given as “tendency to reduce the mean seizure stage”.
